According to ChEMBL document CHEMBL1130782, “Syntheses and evaluation of benzodiazaborine compounds against M. tuberculosis H37Rv in vitro” (1998):
In brackets after ≈: the same amount, converted by molar mass.

Key:
Type in all cases: functional
Escherichia coli = test: Compound was tested in vitro for growth inhibition activity against Escherichia coli
[1] = tested on: Mycobacterium tuberculosis; test: Compound was tested in vitro for growth inhibition activity against Mycobacterium tuberculosis H37Rv in Bactec 12B media.
[2] = tested on: Mycobacterium tuberculosis; test: Compound was tested in vitro for growth inhibition activity against Mycobacterium tuberculosis H37Rv in Bactec 6A media.

Row | SMILES | MIC (Escherichia coli) [µM] | MIC [1] [µM] | MIC [2] [µM]
1 | Cc1ccc(S(=O)(=O)N2N=Cc3ccccc3B2O)cc1 | 83 (≈ 24.9 µg/mL) | 320 (≈ 96 µg/mL) | 40 (≈ 12 µg/mL)
2 | O=C1Nc2ccccc2B(O)N1c1ccccc1 | – | 67.2 (≈ 16 µg/mL) | 33.6 (≈ 8 µg/mL)
3 | NCCOB(c1ccccc1)c1ccccc1 | – | 285 (≈ 64.2 µg/mL) | 71 (≈ 16 µg/mL)
4 | OB1N=C(c2cnccn2)Nc2ccccc21 | – | > 572 | > 572
5 | CCCCN1B(O)c2ccccc2NC1=O | – | > 587 | > 587
6 | OB1c2ccccc2N=C(S)N1c1cccnc1 | – | 63 (≈ 16.1 µg/mL) | 31.4 (≈ 8.01 µg/mL)
7 | NNC(=O)c1ccncc1 [ISONIAZID] | – | < 0.16 | < 0.02
8 | NC(=O)c1cnccn1 [PYRAZINAMIDE] | – | > 1600 | 1600 (≈ 197 µg/mL)
